Source: PMC6109062, “The dual methyltransferase METTL13 targets N terminus and Lys55 of eEF1A and modulates codon-specific translation rates” (Nature Communications, 2018)

Target: T1, MT13-N (N-terminal methyltransferase domain of METTL13) (Homo sapiens, UniProt Q8N6R0)
T1 construct: N-terminal methyltransferase domain, His6-tagged, E. coli
T1 sequence (Q8N6R0 1-245 limits assumed): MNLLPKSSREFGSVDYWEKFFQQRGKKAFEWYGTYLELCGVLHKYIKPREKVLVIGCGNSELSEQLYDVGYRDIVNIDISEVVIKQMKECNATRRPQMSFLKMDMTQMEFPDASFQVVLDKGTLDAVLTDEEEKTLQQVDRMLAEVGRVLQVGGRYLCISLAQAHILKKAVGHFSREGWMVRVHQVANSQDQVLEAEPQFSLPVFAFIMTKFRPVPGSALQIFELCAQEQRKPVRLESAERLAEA
Test: [3H]AdoMet methyl transfer to eEF1A1, fluorography; MS
Type: biochemical
Conditions: co-substrate eEF1A1 (Lys55), no nucleotide added; pH 7.4, 1 mM MgCl2, 30 °C; labelled compound

C[S+](CC[C@H](N)C(=O)O)C[C@H]1O[C@@H](n2cnc3c(N)ncnc32)[C@H](O)[C@@H]1O (stereo partly shown) [AdoMet]
[3H]AdoMet methyl transfer to eEF1A1, fluorography; MS: Recombinant eEF1A was incubated with MT13-N in the presence of AdoMet
